Data on nine molecules can be found in patent US20140248212A1, “NON-IMMUNOGENIC POSITRON EMISSION TOMOGRAPHY REPORTER GENE SYSTEMS” (THE REGENTS OF THE UNIVERSITY OF CALIFORNIA, priority 2011, published 2014).

The target of one data set is T1, TK2-N93D (Homo sapiens, UniProt O00142, N93D).
T1 sequence (O00142 51-265 N93D): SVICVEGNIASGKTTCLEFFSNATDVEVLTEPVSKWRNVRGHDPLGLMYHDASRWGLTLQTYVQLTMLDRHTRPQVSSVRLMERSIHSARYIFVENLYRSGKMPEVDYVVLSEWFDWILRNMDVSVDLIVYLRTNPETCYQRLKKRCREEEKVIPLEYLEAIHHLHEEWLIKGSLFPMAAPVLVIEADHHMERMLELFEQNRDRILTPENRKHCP
The data set can be described thus: Kinetic analyses of recombinant TK2 (NADH-dependent enzyme coupled assay), TK2-N93D. As to conditions: 37° C., 1 mM ATP.

A further data set has as its target T2, TK2-L109F (Homo sapiens, UniProt O00142, L109F).
T2 sequence (O00142 51-265 L109F): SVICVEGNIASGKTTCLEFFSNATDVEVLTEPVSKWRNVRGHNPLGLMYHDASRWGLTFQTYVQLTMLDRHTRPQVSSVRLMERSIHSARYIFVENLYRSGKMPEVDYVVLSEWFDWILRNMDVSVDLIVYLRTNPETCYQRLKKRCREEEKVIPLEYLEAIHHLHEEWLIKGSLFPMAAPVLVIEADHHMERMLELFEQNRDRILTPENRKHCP
The data set can be described thus: Kinetic analyses of recombinant TK2 (NADH-dependent enzyme coupled assay), TK2-L109F. The settings on record: 37° C., 1 mM ATP.

The target of a further data set is T3, TK2-N93D/L109F (Homo sapiens, UniProt O00142, L109F/N93D).
T3 construct: hexahistidine (N, cleaved yes); SUMO (N, cleaved yes); made in house; host or cells: Escherichia coli BL21 (DE3) C41, modified pET14b
T3 sequence (O00142 51-265 N93D/L109F): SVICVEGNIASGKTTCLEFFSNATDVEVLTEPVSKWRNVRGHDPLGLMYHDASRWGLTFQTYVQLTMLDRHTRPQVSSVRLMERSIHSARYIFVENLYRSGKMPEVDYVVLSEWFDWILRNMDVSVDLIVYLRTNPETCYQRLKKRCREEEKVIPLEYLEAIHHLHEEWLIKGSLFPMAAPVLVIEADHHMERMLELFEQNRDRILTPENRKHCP
The data set can be described thus: Kinetic analyses of recombinant TK2 (NADH-dependent enzyme coupled assay), TK2-N93D/L109F. Type of data set: biochemical. The protocol:
FIG. 34 provides a table that illustrates the kinetics of the phosphorylation of D and L-nucleosides by the TK2 mutants. Kinase assays were performed with recombinant protein with 200 μM of the listed substrate.

In the next data set the test system is Baf-3 cells. The data set can be described thus: Test of mutant htk2 reporter genes in Baf-3 cells. Type of data set: cell-based. The text has this:
The sensitivity of the described mutant htk2 imaging reporter genes can be evaluated through cell culture assays and PET imaging in mouse tumor models. […] Further tests regarding the effect of expressing these reporter genes on various cells can be used to determine other potential targets. […] Several enhanced htk2 mutant reporter genes have been designed and tested. Though the examples herein describe different probes and investigate the L probes mainly in mice, other mammals and in particular, humans are also within the scope of the invention. Silico models can be used to derive additional enhanced mutants from human htk2.
(In a reporter assay the amount or activity of a reporter protein is the signal.)

Data set [1] is described as follows: Biodistribution of PET reporter probes in mice (microPET/CT). Type of data set: in vivo, C57/BL6 mice. The settings on record: for biodistribution in mice: C57/BL6 mice, FIG. 25B, no retention in normal tissues except clearance routes (GI tract, bladder). As to the method:
To identify candidate PRPs, eight nucleoside analogs (FIG. 7A) were synthesized that were amenable to ^18F labeling (the first criterion for PRPs). To identify PRP candidates with rapid clearance from normal tissues and low overall background (second criterion for PRGs), biodistribution studies in mice were performed. It was observed that natural (D) nucleosides had higher background than non-natural (L) nucleoside analogs. […] The next step was to identify a human nucleoside kinase that phosphorylates L-[^18F]FMAU and L-[^18F]FEAU, and can be converted into a new PRG that matches four criteria:
Initially, a group of nucleoside analogs amenable to fluorine-18 labeling were identified. These PET tracers, 5 of which were novel, were then screened to determine their biodistribution in C57/BL6 mice (n=3 for each PET tracer) through dynamic microPET scans. […] Rational design is utilized to introduce mutations into human nucleoside kinase thymidine kinase 2 (TK2) to improve the affinity of the kinase for the top candidate probe. The sensitivity and specificity of the novel PET reporter probe/gene pair was then determined in vitro and in vivo using a murine cancer model.
Animal studies were approved and carried out according to specific guidelines. C57/BL6 mice were injected with the indicated probe and underwent micro-PET/CT analyses at 1- and 3-h post probe injection (Inveon, Siemens Medical Solutions USA Inc.; microCAT; Imtek Inc.). For tumor imaging studies, SCID mice were injected subcutaneously on day −7 in the right and left flanks with 1×10^6 L1210-PRG-expressing cells in 50% v/v phosphate-buffered saline and 50% v/v Matrigel™ (BD Biosciences). For imaging experiments, mice were kept warm and under gas anesthesia (2% v/v isoflurane) and were injected intravenously with 200 μCi of ^18F-labeled probes. A 3-h interval was allowed between probe administration and microPET/CT scanning Static microPET images were acquired for 600 s. Image data were evaluated in three-dimensional histograms and reconstructed with a zoom factor of 2.1 using three-dimensional ordered set expectation maximization (OSEM) with 2 iterations followed by MAP (maximum a posteriori) reconstruction with 18 iterations (beta=0.1). Images were analyzed using OsiriX Imaging Software Version 3.8.

A further data set concerns TK1. The data set can be described thus: [3H]dT uptake inhibition assay (competition with thymidine for TK1). It is filed as cell-based. The text has this:
FIG. 6 provides a graph that illustrates data regarding an assay to determine whether candidate probes compete with thymidine for TK1.
Further evaluations can be carried out to precisely assess the affinity of these candidate probes for purified recombinant TK1.

Data set [2] can be described thus: Microsomal stability (glucuronidation conditions). Type of data set: in vitro ADME. As to conditions: glucuronidation conditions (data not shown). An excerpt:
Regarding condition (d), one has obtained the microsomal stability profiles for 3 out of 4 compounds (FCU, FBU and FddUrd using the glucuronidation conditions).

For the next data set, the system named is L1210 cells. In words: Effect of PRG overexpression on growth and dNTP pools of L1210 cells. It is filed as cell-based, murine. As to the method: FIG. 9 provides graphs of data that illustrate how the overexpression of sr39tk affects cell growth and intracellular dNTP pools. L1210 cells were engineered to express: TK2-N93D (▪), TK2 (▴), HSV1-sr39tk (▾), and control vector eYFP (♦). Various graphs show the growth of the L1210 cells in (A) regular media and (B) regular media supplemented with 10 μM thymidine (dT). Other graphs show total cellular dNTP pools (measured by LC-MS) in cells grown in (C) regular media and (D) regular media supplemented with 10 μM dT; (*=below limit of detection).
L1210 cells transduced to overexpress the listed genes were grown in RPMI media (+/−10 μM dT) for 48 hours. The cells were then harvested and pyrimidine nucleotide pools were obtained via […].
To overcome the negative feedback limitation of TK2, a point mutation-N93D, was engineered. The work done by Piskur and colleagues on the structurally related Drosophila melanogaster deoxyribonucleoside kinase (see, e.g. Welin, M., et al. FEBS J 272:3733-3742, 2005) led one to predict that the N93D mutation would reduce the feedback inhibition of TK2 by dTTP. […] We then determined whether the enhanced resistance to feedback inhibition translates into improved TK2-N93D catalytic activity towards the L-[^18F]FMAU substrate. […]

Method for TK2-L109F: A NADH-dependent enzyme coupled assay (see, e.g. Agarwal, K. C., et al. (1978) Methods Enzymol. 51, 483-490) was used. Using a Cary UV spectrophotometer, measurements were made in triplicate at 37° C. in a buffer containing 100 mM Tris, pH 7.5, 100 mM KCl, 5 mM MgCl2, and 1 mM ATP. For data in which kobs is given, a single nucleoside concentration of 200 μM was used. For data in which both Km and kcat are given, the nucleoside concentration was varied between 15 and 500 μM. TK2 concentration in the cuvette was 400 nM. Data were fit to the Michaelis-Menten equation using SigmaPlot. […] Therefore, all of the kinetic data using the Michaelis-Menten equation without the Hill coefficient is presented.

On to `Cc1cn([C@H]2C[C@H](O)[C@@H](CO)O2)c(=O)[nH]c1=O` [D-dT, D-thymidine], for which, at TK2-N93D, the “decrease of kcat relative to WT TK2” value amounted to 77% and the “decrease of kcat/Km compared with WT TK2” value amounted to 60%. On TK2-L109F, the “change of Km by the L109F mutation” value is reported as “decrease in the Km”. Also, the “decrease of kcat compared with TK2” value on TK2-N93D/L109F (37° C., 1 mM ATP) turned out to be 49%.

`CCc1cn([C@H]2O[C@@H](CO)[C@H](O)[C@H]2F)c(=O)[nH]c1=O` [L-[^18F]FEAU]: the “test of reporter system with probe” value with Baf-3 cells is “successfully tested”. The “overall background (biodistribution)” value in data set [1] (candidate 18F nucleoside analog probes in mice, FIG. 7B) is given as “lowest overall background”.

`Cc1cn([C@@H]2C[C@@H](O)[C@H](CO)O2)c(=O)[nH]c1=O` [L-dT]: the “decrease of kcat relative to WT TK2” value at TK2-N93D is 48%. Also, on TK2-L109F, the “change of Km by the L109F mutation” value was “decrease in the Km”. For the same molecule, the “increase of kcat compared with TK2” value at TK2-N93D/L109F (37° C., 1 mM ATP) is listed as 54%.

With `O=c1[nH]c(=O)n([C@H]2C[C@H]([18F])[C@@H](CO)O2)cc1Br` [^18F-FBU, 3′-[^18F]fluoro-2′,3′-dideoxy-5-bromouridine], the biodistribution in mice entry in data set [1] is on record as “excellent biodistribution”. The “phosphorylation by endogenous mammalian thymidine kinases” value (from here on “phosphorylation”) in the data set with TK1 is given as “cannot be phosphorylated”. Further, the “microsomal stability over time” value in data set [2] was “decrease stability over time”.

Consider `O=c1[nH]c(=O)n([C@H]2C[C@H]([18F])[C@@H](CO)O2)cc1Cl` [^18F-FCU, 3′-[^18F]fluoro-2′,3′-dideoxy-5-chlorouridine], for which, in data set [1], the biodistribution in mice entry was “excellent biodistribution”. In the data set with TK1, the “phosphorylation” value was “cannot be phosphorylated”. Further, the “microsomal stability over time” value in data set [2] is reported as “only FBU showed decrease stability over time”.

`O=c1[nH]c(=O)n([C@H]2C[C@H]([18F])[C@@H](CO)O2)cc1F` [^18F-FFU, 3′-[^18F]fluoro-2′,3′-dideoxy-5-fluorouridine]: in data set [1], the biodistribution in mice result is on record as “excellent biodistribution”. For the same molecule, in the data set with TK1, the “phosphorylation” value was “cannot be phosphorylated”.

Take `O=c1ccn([C@H]2C[C@H]([18F])[C@@H](CO)O2)c(=O)[nH]1` [^18F-FddUrd, 3′-[^18F]fluoro-2′,3′-dideoxy-uridine]: in data set [1], the biodistribution in mice result is given as “excellent biodistribution”. Moreover, the “phosphorylation” value with TK1 is on record as “cannot be phosphorylated”. Besides, the “microsomal stability over time” value in data set [2] is reported as “only FBU showed decrease stability over time”.

Regarding `Nc1ccn([C@H]2C[C@H](O)[C@@H](CO)O2)c(=O)n1` [dC, deoxycytidine], at TK2-N93D/L109F (200 μM substrate), the “kobs as percentage of that of TK2” value was found to be 62%.

B1: TK2-N93D: truncated human thymidine kinase 2 with N93D point mutation, PET reporter gene product (SEQ ID NO: 3) (protein, listed as Homo sapiens)
chain: MSVICVEGNIASGKTTCLEFFSNATDVEVLTEPVSKWRNVRGHDPLGLMYHDASRWGLTLQTYVQLTMLDRHTRPQVSSVRLMERSIHSARYIFVENLYRSGKMPEVDYVVLSEWFDWILRNMDVSVDLIVYLRTNPETCYQRLKKRCREEEKVIPLEYLEAIHHLHEEWLIKGSLFPMAAPVLVIEADHHMERMLELFEQNRDRILTPENRKHCP
Turning to B1, in the data set with L1210 cells, the “growth rate of transduced cells” value was “did not affect” and the “intracellular dNTP pools” value is listed as “did not affect”.
